Series [1] can be described thus: Mouse intestinal secretion assay (suckling mouse assay). The class given is in vivo. On the set-up: key to Mouse intestinal secretion assay (suckling mouse): 1+ (lowest activity/potency); ++: Results are graded from 1+ (lowest activity/potency) to 5+ (highest activity/potency); +++: Results are graded from 1+ (lowest activity/potency) to 5+ (highest activity/potency); ++++: Results are graded from 1+ (lowest activity/potency) to 5+ (highest activity/potency); +++++: 5+ (highest activity/potency). The following applies: for Mouse intestinal secretion assay (suckling mouse): graded activity/potency. The procedure: A relevant disease model is the suckling mouse model in which STa (5-18) is deposited into the stomach of 3-4 day old mice, and the accumulation of fluid in their intestines is determined gravimetrically (Parkinson et al., 1994). All GCC peptides were formulated to the desired concentration in Dulbecco's PBS (1×, No Ca++, no Mg++) containing […] immediately prior to dosing. Proteinase inhibitors were prepared as stock solutions in PBS and added to dosing solutions by serial dilution, as needed. The dosing solution (50 μL) was delivered into the stomachs of 2-4 day old mice (3 per dosing group) using a plastic tube attached to the needle of a 1 mL tuberculin syringe. After 3 hours, the animals were sacrificed and dissected to determine the individual weights of the intestines and the rest of the carcass, respectively.

Series [2] is described as follows: Stability in rat intestinal fluid (Kessler 2008, 2009). The class given is in vitro ADME. The note with it: ileal vs duodenal fluid. The protocol: According to the present invention, there are additional reasons why the distal jejunum, ileum, cecum and proximal colon are the preferred targets for a GCCR agonist. […] ST peptides are stable in the stomach but are rapidly degraded in the upper intestine. […] However, linaclotide is degraded rapidly in the duodenum. In intestinal fluids from both mouse, rat and humans the peptide loses its C-terminal tyrosine and forms an active metabolite. The half life for linaclotide is 3 minutes in rat intestinal fluid and 1 minute in human intestinal fluid. This metabolite is also rapidly degraded, first by reductases and then by proteases. The half life for the metabolite is about 5 minutes in rat intestinal fluid, and 3 minutes in human intestinal fluid. It is not detectable after 60 minutes in rat intestinal fluid, and after 18 minutes in human intestinal fluid (Kessler et al., 2009; Kessler et al., 2008). Thus, if released in the stomach or duodenum, an ST peptide analogue such as linaclotide will be active only in the duodenum. It is likely that an uroguanylin analogue such as plecanatide is degraded even more rapidly and therefore has an even shorter activity time.
This correlates with the free thiol concentrations in these locations and the activity of the Glutathione Reductase/Glutareduxin system activities in these locations.

The conditions of series [3]: cited from earlier work.
The conditions of series [4]: cited from earlier work. The source holds these as a separate data set.
The conditions of series [5]: human intestinal fluid; cited from earlier work.
For series [6] the following is noted: 12 weeks treatment period; cited from earlier work.
Series [7] deals with GCC. The following applies: GCC expressed in the jejunum and cecum of the calf; cited from earlier work.
The target in series [8] is T1, GCC (Homo sapiens, UniProt P25092).
T1 construct: human small intestine (n=20) and colon (n=24) specimens; host or cells: human small intestine and colon specimens
The following applies: read-out: affinity for the interaction with GCC, cited from earlier work.

In series [9] the target is T2, GCC (Rattus norvegicus, UniProt P23897).
T2 sequence (P23897 23-1072): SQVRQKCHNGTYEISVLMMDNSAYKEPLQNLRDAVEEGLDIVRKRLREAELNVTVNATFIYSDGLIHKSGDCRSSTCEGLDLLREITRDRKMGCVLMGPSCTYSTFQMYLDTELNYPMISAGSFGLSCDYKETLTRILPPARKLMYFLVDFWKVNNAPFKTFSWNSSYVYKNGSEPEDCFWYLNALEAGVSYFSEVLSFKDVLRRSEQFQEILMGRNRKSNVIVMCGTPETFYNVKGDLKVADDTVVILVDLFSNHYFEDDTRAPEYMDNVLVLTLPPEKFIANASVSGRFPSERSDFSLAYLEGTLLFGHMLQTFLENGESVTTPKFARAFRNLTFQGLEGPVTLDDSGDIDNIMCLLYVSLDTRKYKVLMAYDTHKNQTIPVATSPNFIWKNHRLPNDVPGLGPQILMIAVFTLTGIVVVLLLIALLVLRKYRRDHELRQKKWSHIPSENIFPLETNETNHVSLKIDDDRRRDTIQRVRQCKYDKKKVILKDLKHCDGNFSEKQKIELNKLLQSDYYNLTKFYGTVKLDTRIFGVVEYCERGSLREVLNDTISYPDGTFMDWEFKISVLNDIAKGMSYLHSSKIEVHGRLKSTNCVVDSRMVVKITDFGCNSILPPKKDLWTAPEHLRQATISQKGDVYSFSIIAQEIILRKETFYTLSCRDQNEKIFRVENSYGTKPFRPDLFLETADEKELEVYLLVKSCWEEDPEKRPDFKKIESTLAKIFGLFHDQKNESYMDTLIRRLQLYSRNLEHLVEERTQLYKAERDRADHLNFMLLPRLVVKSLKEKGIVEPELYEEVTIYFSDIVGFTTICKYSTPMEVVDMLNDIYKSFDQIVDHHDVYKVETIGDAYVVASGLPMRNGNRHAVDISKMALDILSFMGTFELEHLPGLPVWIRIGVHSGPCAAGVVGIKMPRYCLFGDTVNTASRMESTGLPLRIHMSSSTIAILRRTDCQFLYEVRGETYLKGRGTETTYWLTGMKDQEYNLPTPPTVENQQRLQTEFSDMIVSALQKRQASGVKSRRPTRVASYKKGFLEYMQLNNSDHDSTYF
Also on record: GCC expressed in the duodenum, cecum and colon; host or cells: intestinal tissue (duodenum, cecum, colon). The note with it: GCC expressed in the duodenum, cecum and colon; read-out: affinity (Ki) for GCC; cited from earlier work.

The target in series [10] is T2, GCC. On the set-up: ligated intestinal loops from Sprague Dawley and Wistar rats; host or cells: rat jejunal and ileal loops in vivo. The following applies: ileum relative to jejunum; cited from earlier work.

pKi: −log10 of the molar value. Read-outs that look alike come from different tables or passages of the source. Residues, ends and D or L forms follow the SMILES beside them.

T1 sequence (P25092 24-1073): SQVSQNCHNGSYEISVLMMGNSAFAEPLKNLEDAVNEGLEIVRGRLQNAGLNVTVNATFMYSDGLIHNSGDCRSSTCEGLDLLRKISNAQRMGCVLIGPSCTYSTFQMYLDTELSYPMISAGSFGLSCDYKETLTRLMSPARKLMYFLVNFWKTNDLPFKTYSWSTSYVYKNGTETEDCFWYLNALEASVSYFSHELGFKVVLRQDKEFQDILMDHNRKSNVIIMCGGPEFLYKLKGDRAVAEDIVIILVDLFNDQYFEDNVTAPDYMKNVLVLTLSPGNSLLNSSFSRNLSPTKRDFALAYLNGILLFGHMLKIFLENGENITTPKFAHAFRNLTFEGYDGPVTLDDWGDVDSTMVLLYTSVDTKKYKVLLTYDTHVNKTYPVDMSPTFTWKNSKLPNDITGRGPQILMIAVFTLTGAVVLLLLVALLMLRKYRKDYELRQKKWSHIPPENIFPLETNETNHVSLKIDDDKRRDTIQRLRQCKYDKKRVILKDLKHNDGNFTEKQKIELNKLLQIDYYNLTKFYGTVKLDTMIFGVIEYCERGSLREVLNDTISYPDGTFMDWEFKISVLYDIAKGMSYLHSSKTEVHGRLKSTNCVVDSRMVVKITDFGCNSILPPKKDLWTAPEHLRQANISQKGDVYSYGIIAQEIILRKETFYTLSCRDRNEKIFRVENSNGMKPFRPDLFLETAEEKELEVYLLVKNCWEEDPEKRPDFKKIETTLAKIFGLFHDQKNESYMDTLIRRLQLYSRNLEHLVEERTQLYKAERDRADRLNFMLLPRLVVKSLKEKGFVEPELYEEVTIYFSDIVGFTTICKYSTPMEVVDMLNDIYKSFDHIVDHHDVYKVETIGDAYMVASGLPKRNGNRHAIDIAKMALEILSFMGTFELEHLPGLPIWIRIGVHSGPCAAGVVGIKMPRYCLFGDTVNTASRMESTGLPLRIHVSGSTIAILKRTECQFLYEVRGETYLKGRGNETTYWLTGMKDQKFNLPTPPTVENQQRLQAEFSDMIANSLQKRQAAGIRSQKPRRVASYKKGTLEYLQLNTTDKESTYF

Turning to `C[C@@H]1NC(=O)[C@@H]2CCCN2C(=O)[C@H](CC(N)=O)NC(=O)[C@@H]2CSSC[C@H](N)C(=O)N[C@H]3CSSC[C@H](NC1=O)C(=O)N[C@@H]([C@@H](C)O)C(=O)NCC(=O)N[C@H](C(=O)N[C@@H](Cc1ccc(O)cc1)C(=O)O)CSSC[C@H](NC(=O)[C@H](Cc1ccc(O)cc1)NC(=O)[C@H](CCC(=O)O)NC3=O)C(=O)N2` [Linaclotide, H2N Cys Cys Glu Tyr Cys Cys Asn Pro Ala Cys Thr Gly Cys Tyr COOH] (HELM PEPTIDE1{C.C.E.Y.C.C.N.P.A.C.T.G.C.Y}$PEPTIDE1,PEPTIDE1,1:R3-6:R3|PEPTIDE1,PEPTIDE1,2:R3-10:R3|PEPTIDE1,PEPTIDE1,5:R3-13:R3$$$V2.0), the “activity in the mouse intestinal secretion assay” value in [1] (FIG. 26, compared to STa) was “lower activity”. Moreover, the “Mouse intestinal secretion assay (suckling mouse)” value in series [1] is recorded as “+++”. For the same molecule, the “more stable in ileal intestinal fluid compared to the duodenum” value in [2] was “up to 100 ×”. Also, the “stable in simulated gastric fluid for” value in series [3] is recorded as “up to 3 hours”. Besides, the half life result in [4] (rat duodenal fluid) was “about 0.44 minutes”; in series [4] (rat ileal fluid) it was “about 30 minutes”; in series [4] (rat intestinal fluid), 3 min; in [4] (rat jejunal fluid) it was 0.36 min; in series [5], 1 min. In series [6], the “patients achieving primary efficacy endpoint (three or more CSBMs per week and increase of at least one CSBM per week over baseline for at least nine of 12 weeks)” value was 21%.

As to “H2N Asn Thr Phe Tyr Cys Cys Glu Leu Cys Cys Asn Pro Ala Cys Ala Gly Cys Tyr COOH [STa(1-18)]”, the “Mouse intestinal secretion assay (suckling mouse)” value in [1] is reported as “++++”. In the series on GCC [7], the “decrease in the affinity for its receptor” value is recorded as 2 log. Also, the values for the pKi on GCC [8] (human colon specimens (n=24)), on GCC [8] (human small intestine specimens (n=20)) and on GCC [9] were 8.92, 8.72 and 8.40 to 9.00, respectively. Further, the “duration of response in intestinal loops” value on GCC [10] is “significantly longer duration of response in the Ileum relative to the jejunum”.

The values are drawn from patent publication US8748575B2, “Therapeutic peptides” (Combimab, Inc., priority 2010, dated 2014).
